Assay results from patent publication US4843087A (priority 1986, dated 1989).
Converted amounts (≈) assume the structure as drawn.

Experiments:
Polio 2 = experiment: microbe, parasite or virus in culture; assay type: cell-based, poliovirus; settings: Enterovirus C, HeLa, read-out: Polio 2 MIC
[1] = system: human rhinovirus (HRV) serotypes; experiment: microbe, parasite or virus in culture; assay type: cell-based; settings: for MIC50: read-out: Rhinovirus MIC50; for IC (MIC80 of serotype panel): read-out: Rhinovirus MIC80
[2] = system: poliovirus, type 2, MEF strain; experiment: animal or person; assay type: in vivo, white Swiss mice; settings: Enterovirus C, in Mus musculus, po, 336 h, read-out: Survivors Day 14 Post Infection

Compound	MIC (Polio 2) [µg/mL]	MIC50 [1] [µg/mL]	IC (MIC80 of serotype panel) [1] [µg/mL]	responders at 100 mg/kg [2] [%]	responders at 200 mg/kg [2] [%]	responders at 400 mg/kg [2] [%]	responders at 50 mg/kg [2] [%]
Cc1cc(CCCCCCCOc2ccc(C3=NC(C)CO3)cc2)on1 (racemic) [Example 3, 5-{7-[4-(4,5-Dihydro-4-methyl-2-oxyazolyl)phenoxy]heptyl}-3-methylisoxazole]	1.2 (≈ 3.37 µM)	0.07 (≈ 0.196 µM)	1.6	45	60	70	
Cc1cc(CCCCCCCc2ccc(C3=NCCO3)cc2)on1 [6(g), 5-{7-[4-(4,5-Dihydro-2-oxazolyl)phenyl]heptyl}-3-methylisoxazole]	0.09 (≈ 0.276 µM)			85	95		25
Cc1cc(CCCCCOc2ccc(C3=NCCO3)cc2)no1 [7(k), 3-{5-[4-(4,5-Dihydro-2-oxazolyl)phenoxy]pentyl}-5-methylisoxazole]	0.0012 (≈ 0.00382 µM)	1.3 (≈ 4.14 µM)	74.6	80			
Cc1cc(CCCCCCCOc2ccc(-c3nc(C)co3)cc2)on1 [Example 135, 5-{7-[4-(4-Methyl-2-oxazolyl)phenoxy]heptyl}-3-methylisoxazole]	2.6 (≈ 7.34 µM)	0.335 (≈ 0.945 µM)	0.6				
CN(C)Cc1cc(CCCCCCCOc2ccc(C3=NCCO3)cc2)on1 [Example 136(b), 5-{7-[4-(4,5-Dihydro-2-oxazolyl)phenoxy]heptyl}-3-(dimethylaminomethyl)isoxazole]	0.62 (≈ 1.61 µM)	0.88 (≈ 2.28 µM)	1.47				
CCN(CC)Cc1cc(CCCCCCCOc2ccc(C3=NCCO3)cc2)on1 [Example 137, 5-{7-[4-(4,5-Dihydro-2-oxazolyl)phenoxy]heptyl}-3-(diethylaminomethyl)isoxazole]	2 (≈ 4.84 µM)	3.25 (≈ 7.87 µM)	6.2				
C=Cc1cc(C2=NCCO2)ccc1OCCCCCc1cc(C)no1 [Example 141, 5-{5-[2-Ethenyl-4-(4,5-dihydro-2-oxazolyl)phenoxy]pentyl}-3-methylisoxazole]	0.23 (≈ 0.676 µM)	0.25 (≈ 0.734 µM)	0.54				
Cc1cc(CCCCCCc2ccc(C3=NCCO3)cc2)on1 [Example 142]	0.37 (≈ 1.18 µM)	0.26 (≈ 0.832 µM)	6.2				
Cc1cc(CCCCCOc2c(C)cc(-c3cocn3)cc2C)on1 [Example 144, 5-{5-[2,6-Dimethyl-4-(4-oxazolyl)phenoxy]pentyl}-3-methylisoxazole]	12.5 (≈ 36.7 µM)	0.14 (≈ 0.411 µM)	1.1				
Cc1cc(CCCCCOc2ccc(-c3ncc(Cl)o3)cc2)on1 [Example 145, 5-{5-[4-(5-Chloro-2-oxazolyl)phenoxy]pentyl}-3-methylisoxazole]	0.033 (≈ 0.0952 µM)	0.2 (≈ 0.577 µM)	0.29				
CCOC(=O)c1cc(C2=NCCO2)ccc1OCCCCCc1cc(C)no1 [Example 146, 5-{5-[2-Ethoxycarbonyl-4-(4,5-dihydro-2-oxazolyl)phenoxy]pentyl}-3-methylisoxazole]	4.2 (≈ 10.9 µM)	0.29 (≈ 0.75 µM)	0.55				
Cc1cc(CCCCCOc2ccc(C3=NCCO3)cc2C=CBr)on1 [Example 147, 5-{5-[2-(2-Bromoethenyl)-4-(4,5-dihydro-2-oxazolyl)phenoxy]pentyl}-3-methylisoxazole]	0.4 (≈ 0.954 µM)	0.23 (≈ 0.549 µM)	0.76				
COC(=O)CCC(=O)OCc1cc(CCCCCOc2c(Cl)cc(C3=NCCO3)cc2Cl)on1 [Example 148, 5-{5-[2,6-Dichloro-4-(4,5-dihydro-2-oxazolyl)phenoxy]pentyl}-3-isoxazolylmethyl methyl butanedioate]	8.5 (≈ 16.6 µM)	0.17 (≈ 0.331 µM)	0.45				
Cc1cc(CCC#CCOc2c(Cl)cc(C3=NCCO3)cc2Cl)on1 [Example 151, 5-{5-[2,6-Dichloro-4-(4,5-dihydro-2-oxazolyl)phenoxy]-3-pentynyl}-3-methylisoxazole]	0.4 (≈ 1.05 µM)	0.2 (≈ 0.527 µM)	1.2				
